Laboratory results published in ChEMBL document CHEMBL4118087, “Inhibitors of CD73 May Provide a Treatment for Cancer and Autoimmune Diseases” (ACS Med Chem Lett, 2017).

Target: 5'-nucleotidase (Homo sapiens, UniProt P21589, T376A)
Experiment: Inhibition of human flag-tagged CD73 Thr376Ala mutant (1 to 552 residues) assessed as reduction in conversion of AMP to adenosine incubated for 10 mins followed by AMP addition measured after 30 mins by RapidFire mass spectrometric analysis

Chain of 5'-nucleotidase (P21589 27-549 T376A limits assumed): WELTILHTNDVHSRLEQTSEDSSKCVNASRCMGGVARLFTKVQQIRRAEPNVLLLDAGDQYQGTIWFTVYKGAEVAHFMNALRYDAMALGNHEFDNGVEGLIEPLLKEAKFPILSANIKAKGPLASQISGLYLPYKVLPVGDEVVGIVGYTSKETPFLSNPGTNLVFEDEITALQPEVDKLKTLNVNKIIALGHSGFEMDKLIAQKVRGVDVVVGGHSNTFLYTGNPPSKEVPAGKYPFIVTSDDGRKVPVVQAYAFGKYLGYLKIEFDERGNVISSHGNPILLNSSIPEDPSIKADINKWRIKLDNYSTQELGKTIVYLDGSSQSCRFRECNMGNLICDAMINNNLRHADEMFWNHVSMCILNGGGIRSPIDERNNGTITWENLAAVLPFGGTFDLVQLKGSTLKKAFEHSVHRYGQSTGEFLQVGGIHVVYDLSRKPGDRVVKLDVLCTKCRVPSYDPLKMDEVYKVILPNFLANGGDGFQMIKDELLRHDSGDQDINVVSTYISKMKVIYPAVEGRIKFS

IC50	Structure (SMILES)
100 nM	O=S1(=O)NC(Nc2cccc(O)c2)=Nc2c(O)cc(F)cc21
63.1 nM	O=S1(=O)N=C(Nc2cc(F)c3[nH]ccc3c2)Nc2c(O)cc(Cl)c(Br)c21
3160 nM	CN(C)C(=O)Cc1cccc(NC2=Nc3c(O)cc(Cl)cc3S(=O)(=O)N2)c1

The next lines start with the molecule.

Structure (SMILES)	IC50
Cc1ccc(NC2=Nc3c(O)cc(Cl)cc3S(=O)(=O)N2)cc1	1000 nM
O=S1(=O)NC(Nc2cccc3[nH]ccc23)=Nc2c(O)cc(Cl)cc21	≤ 316 nM
O=S1(=O)NC(Nc2cccc3[nH]ncc23)=Nc2c1cc(Cl)c(F)c2O	15.8 nM
